Measured values as given in patent US20230265116A1, “DEGRADATION OF (EGFR) BY CONJUGATION OF EGFR INHIBITORS WITH E3 LIGASE LIGAND AND METHODS OF USE” (BEIGENE, LTD., priority 2020, published 2023).
Read-outs that look alike come from different tables or passages of the source.

Experiments:
[1] = test system: EGFR Del19/T790M/C797S (H1975-clone #28); test: EGFR degradation HTRF assay, H1975-clone #28 DTC cells; format: cell-based
Outline: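 Compounds (top 10 uM, 5-fold, 8 points, 0.2% DMSO) incubated 16 h at 37 °C on homozygous clones: #23 Del19/C797S, #28 Del19/T790M/C797S, exogenous EGFR only in H1975. HTRF on lysates quantified remaining EGFR relative to DMSO; four-parameter fit gave DC50 and Dmax.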

[2] = target: T1, EGFR L858R/T790M/C797S (BaF3-LTC cells) (Homo sapiens, UniProt P00533, C797S/L858R/T790M); test: EGFR degradation HTRF assay, BaF3-LTC cells; format: cell-based
T1 construct: expressed in transfected cells; host or cells: BaF3
T1 sequence (P00533 25-1210 T790M/C797S/L858R): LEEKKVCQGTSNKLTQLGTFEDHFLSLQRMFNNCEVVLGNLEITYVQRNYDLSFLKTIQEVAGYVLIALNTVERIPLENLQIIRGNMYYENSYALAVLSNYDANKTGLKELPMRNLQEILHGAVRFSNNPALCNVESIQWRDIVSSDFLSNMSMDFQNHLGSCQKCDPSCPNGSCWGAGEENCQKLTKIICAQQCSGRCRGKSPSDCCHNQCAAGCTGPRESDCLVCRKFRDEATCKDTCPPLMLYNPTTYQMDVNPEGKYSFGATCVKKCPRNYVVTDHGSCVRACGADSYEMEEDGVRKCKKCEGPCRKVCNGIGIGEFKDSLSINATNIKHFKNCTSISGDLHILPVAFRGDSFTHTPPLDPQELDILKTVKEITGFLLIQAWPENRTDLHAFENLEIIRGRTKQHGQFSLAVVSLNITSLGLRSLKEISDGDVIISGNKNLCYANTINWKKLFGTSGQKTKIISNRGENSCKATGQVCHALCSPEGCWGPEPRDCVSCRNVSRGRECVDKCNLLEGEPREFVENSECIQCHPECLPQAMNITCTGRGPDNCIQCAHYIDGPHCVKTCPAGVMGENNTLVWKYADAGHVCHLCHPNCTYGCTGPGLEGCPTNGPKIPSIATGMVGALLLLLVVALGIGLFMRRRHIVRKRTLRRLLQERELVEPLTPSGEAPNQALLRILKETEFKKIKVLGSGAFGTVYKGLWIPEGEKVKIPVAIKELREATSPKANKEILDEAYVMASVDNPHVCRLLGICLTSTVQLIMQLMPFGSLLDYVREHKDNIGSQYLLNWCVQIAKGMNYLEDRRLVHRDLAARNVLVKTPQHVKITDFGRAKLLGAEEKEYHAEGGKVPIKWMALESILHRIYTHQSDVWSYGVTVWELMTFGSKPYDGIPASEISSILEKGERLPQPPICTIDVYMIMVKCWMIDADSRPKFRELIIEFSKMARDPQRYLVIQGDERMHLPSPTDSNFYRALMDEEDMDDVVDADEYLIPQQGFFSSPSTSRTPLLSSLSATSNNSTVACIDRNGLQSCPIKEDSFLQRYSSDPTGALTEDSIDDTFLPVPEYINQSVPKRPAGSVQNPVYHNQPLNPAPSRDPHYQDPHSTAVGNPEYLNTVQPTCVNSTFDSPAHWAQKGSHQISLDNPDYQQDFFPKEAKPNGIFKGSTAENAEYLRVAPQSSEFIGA
Outline: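 Cells treated 16 h at 37 °C, 5% CO2 in medium with 0.2% DMSO; top final concentration 10 uM, 5-fold dilution, 8 doses. Lysates read by HTRF (665/620 nm); degradation % versus DMSO high control, DC50 from four-parameter fit, Dmax as maximal degradation.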

[3] = H1975 # 28 DTC cells; EGFR degradation, IC50 (DC50) from curve fit; read-out: DC50(nM) H1975 # 28 DTC
[4] = H1975 # 28 DTC cells; maximum percentage of inhibition (degradation)
[5] = BaF3-LTC cells; EGFR degradation, IC50 (DC50) from curve fit; read-out: DC50(nM) BaF3-LTC
[6] = BaF3-LTC cells; maximum percentage of inhibition (degradation); read-out: Dmax (%) BaF3-LTC
[7] = read-out: DC50(nM) H1975 # 28 DTC; H1975 # 28 DTC cells; EGFR degradation, IC50 (DC50) from curve fit
[8] = read-out: DC50(nM) BaF3-LTC; BaF3-LTC cells; EGFR degradation, IC50 (DC50) from curve fit
[9] = read-out: Dmax (%) BaF3-LTC, BaF3-LTC cells; maximum percentage of inhibition (degradation)

SMILES	DC50 [1, 3] [nM]	Dmax (%) H1975 # 28 DTC [1, 4] [%]	DC50 [2, 5] [nM]	Dmax [2, 6] [%]	DC50 [1, 7] [nM]	DC50 [2, 8] [nM]	Dmax [2, 9] [%]	Dmax (%) BaF3-LTC ([2]; BaF3-LTC cells; maximum percentage of inhibition (degradation)) [%]
CCOc1cc(N2CCC(N3CCN(CCc4cc(F)c5c(c4)C4(CC4)C(=O)N5C4CCC(=O)NC4=O)CC3)CC2)c(CC)cc1Nc1ncc(Br)c(Nc2ccc3nc(CC)ccc3c2P(C)(C)=O)n1 (centres unmarked) [Example 659, 3-(5′-(2-(4-(1-(4-((5-bromo-4-((5-(dimethylphosphoryl)-2-ethylquinolin-6-yl)amino)pyrimidin-2-yl)amino)-5-ethoxy-2-ethylphenyl)piperidin-4-yl)piperazin-1-yl)ethyl)-7′-fluoro-2′-oxospiro[cyclopropane-1,3′-indolin]-1′-yl)piperidine-2,6-dione]	2.8	77.5	17.8	73.3				
CCc1ccc2c(P(C)(C)=O)c(Nc3nc(Nc4cc(CC)c(N5CCC(N6CCN(CC7CN(c8cc(F)cc9c8oc(=O)n9C8CCC(=O)NC8=O)C7)CC6)CC5)cc4OC)ncc3Br)ccc2n1 (centres unmarked) [Example 449, 3-(7-(3-((4-(1-(4-((5-bromo-4-((5-(dimethylphosphoryl)-2-ethylquinolin-6-yl)amino)pyrimidin-2-yl)amino)-2-ethyl-5-methoxyphenyl)piperidin-4-yl)piperazin-1-yl)methyl)azetidin-1-yl)-5-fluoro-2-oxobenzo[d]oxazol-3(2H)-yl)piperidine-2,6-dione]	0.937	85.59	2.99	89.9				
CCc1cc(Nc2ncc(Br)c(Nc3ccc4nc(C)ccc4c3P(C)(C)=O)n2)c(OC)cc1N1CCC(N2CCN(CCC3CN(c4cccc5c4CN(C4CCC(=O)NC4=O)C5=O)C3)CC2)CC1 (centres unmarked) [Example 692, 3-(4-(3-(2-(4-(1-(4-((5-bromo-4-((5-(dimethylphosphoryl)-2-methylquinolin-6-yl)amino)pyrimidin-2-yl)amino)-2-ethyl-5-methoxyphenyl)piperidin-4-yl)piperazin-1-yl)ethyl)azetidin-1-yl)-1-oxoisoindolin-2-yl)piperidine-2,6-dione]	0.593	73	6.68	91.4				
CCOc1cc(N2CCC(N3CCN(CC4CCN(c5cccc6c5oc(=O)n6C5CCC(=O)NC5=O)CC4)CC3)CC2)c(CC)cc1Nc1ncc(Br)c(Nc2ccc3nc(CC)ccc3c2P(C)(C)=O)n1 (centres unmarked) [Example 581, 3-(7-(4-((4-(1-(4-((5-bromo-4-((5-(dimethylphosphoryl)-2-ethylquinolin-6-yl)amino)pyrimidin-2-yl)amino)-5-ethoxy-2-ethylphenyl)piperidin-4-yl)piperazin-1-yl)methyl)piperidin-1-yl)-2-oxobenzo[d]oxazol-3(2H)-yl)piperidine-2,6-dione]	1.36	72.5	6.9	88.5				
CCOc1cc(N2CCC(N3CCN(C(=O)[C@@H]4CCN(c5cc(F)cc6c5oc(=O)n6C5CCC(=O)NC5=O)C4)CC3)CC2)c(CC)cc1Nc1ncc(Br)c(Nc2ccc3nc(CC)ccc3c2P(C)(C)=O)n1 (stereo partly drawn) [Example 477, 3-(7-((R)-3-(4-(1-(4-((5-bromo-4-((5-(dimethylphosphoryl)-2-ethylquinolin-6-yl)amino)pyrimidin-2-yl)amino)-5-ethoxy-2-ethylphenyl)piperidin-4-yl)piperazine-1-carbonyl)pyrrolidin-1-yl)-5-fluoro-2-oxobenzo[d]oxazol-3(2H)-yl)piperidine-2,6-dione]		73.35			4.24	7.16	82.7	
CCc1cc(Nc2ncc(Br)c(Nc3ccc4nc(C)ccc4c3P(C)(C)=O)n2)c(OC)cc1N1CCC(N2CCN(C(=O)[C@H]3CC[C@@H](Oc4cc(F)c(C5CCC(=O)NC5=O)c(F)c4)CC3)CC2)CC1 (some centres unmarked) [Example 681, 3-(4-(((1s,4s)-4-(4-(1-(4-((5-bromo-4-((5-(dimethylphosphoryl)-2-methylquinolin-6-yl)amino)pyrimidin-2-yl)amino)-2-ethyl-5-methoxyphenyl)piperidin-4-yl)piperazine-1-carbonyl)cyclohexyl)oxy)-2,6-difluorophenyl)piperidine-2,6-dione]	1.37	77.05	4.65	96				
CCc1cc(Nc2ncc(Br)c(Nc3ccc4nc(C#N)ccc4c3P(C)(C)=O)n2)c(OC)cc1N1CCC(N2CCN(CCc3cc(F)c([C@H]4CCC(=O)NC4=O)c(F)c3)CC2)CC1 [Example 682, (R)-6-((5-bromo-2-((4-(4-(4-(4-(2,6-dioxopiperidin-3-yl)-3,5-difluorophenethyl)piperazin-1-yl)piperidin-1-yl)-5-ethyl-2-methoxyphenyl)amino)pyrimidin-4-yl)amino)-5-(dimethylphosphoryl)quinoline-2-carbonitrile]	0.91	87.08	6.79	95				
CCOc1cc(N2CCC(N3CCN(CCCc4cccc5c4oc(=O)n5C4CCC(=O)NC4=O)CC3)CC2)c(CC)cc1Nc1ncc(Br)c(Nc2ccc3nc(CC)ncc3c2P(C)(C)=O)n1 (centres unmarked) [Example 615, 3-(7-(3-(4-(1-(4-((5-bromo-4-((5-(dimethylphosphoryl)-2-ethylquinazolin-6-yl)amino)pyrimidin-2-yl)amino)-5-ethoxy-2-ethylphenyl)piperidin-4-yl)piperazin-1-yl)propyl)-2-oxobenzo[d]oxazol-3(2H)-yl)piperidine-2,6-dione]		72.36			0.921	7.91	91	
CCOc1cc(N2CCC(N3CCN(CCCc4cc(Cl)cc5c4oc(=O)n5C4CCC(=O)NC4=O)CC3)CC2)c(CC)cc1Nc1ncc(Br)c(Nc2ccc3nc(CC)ccc3c2P(C)(C)=O)n1 (centres unmarked) [Example 726, 3-(7-(3-(4-(1-(4-((5-bromo-4-((5-(dimethylphosphoryl)-2-ethylquinolin-6-yl)amino)pyrimidin-2-yl)amino)-5-ethoxy-2-ethylphenyl)piperidin-4-yl)piperazin-1-yl)propyl)-5-chloro-2-oxobenzo[d]oxazol-3(2H)-yl)piperidine-2,6-dione]	1.46	74.13	7.11	96.7				
CCc1cc(Nc2ncc(Br)c(Nc3ccc4nc(C)ccc4c3P(C)(C)=O)n2)c(OC2CC2)cc1N1CCC(N2CCN(C(=O)[C@@H]3CCN(c4cc(F)c([C@H]5CCC(=O)NC5=O)c(F)c4)C3)CC2)CC1 [Example 544, (R)-3-(4-((R)-3-(4-(1-(4-((5-bromo-4-((5-(dimethylphosphoryl)-2-methylquinolin-6-yl)amino)pyrimidin-2-yl)amino)-5-cyclopropoxy-2-ethylphenyl)piperidin-4-yl)piperazine-1-carbonyl)pyrrolidin-1-yl)-2,6-difluorophenyl)piperidine-2,6-dione]	1.48	81.13	12.5	90.3				
CCOc1cc(N2CCC(N3CCN(CCc4cc5oc(=O)n(C6CCC(=O)NC6=O)c5cc4F)CC3)CC2)c(CC)cc1Nc1ncc(Br)c(Nc2ccc3nc(CC)ncc3c2P(C)(C)=O)n1 (centres unmarked) [Example 609, 3-(6-(2-(4-(1-(4-((5-bromo-4-((5-(dimethylphosphoryl)-2-ethylquinazolin-6-yl)amino)pyrimidin-2-yl)amino)-5-ethoxy-2-ethylphenyl)piperidin-4-yl)piperazin-1-yl)ethyl)-5-fluoro-2-oxobenzo[d]oxazol-3(2H)-yl)piperidine-2,6-dione]		74.7			3.07	11.5		89.57
CCOc1cc(N2CCC(N3CCN(CCCc4cc(F)cc5c4oc(=O)n5C4CCC(=O)NC4=O)CC3)CC2)c(CC)cc1Nc1ncc(Br)c(Nc2ccc3nc(CC)ncc3c2P(C)(C)=O)n1 (centres unmarked) [Example 564, 3-(7-(3-(4-(1-(4-((5-bromo-4-((5-(dimethylphosphoryl)-2-ethylquinazolin-6-yl)amino)pyrimidin-2-yl)amino)-5-ethoxy-2-ethylphenyl)piperidin-4-yl)piperazin-1-yl)propyl)-5-fluoro-2-oxobenzo[d]oxazol-3(2H)-yl)piperidine-2,6-dione]		81.87			1.04	7.34	93.9	
CCc1cc(Nc2ncc(Br)c(Nc3ccc4nc(C)ccc4c3P(C)(C)=O)n2)c(OC)cc1N1CCC(N2CCN(C(=O)CC3CN(c4cc(F)c([C@H]5CCC(=O)NC5=O)c(F)c4)C3)CC2)CC1 (single isomer, unassigned) [Example 573]	0.751	81.91	3.36	97.7				
CCc1cc(Nc2ncc(Br)c(Nc3ccc4ccnnc4c3P(C)(C)=O)n2)c(OC)cc1N1CCC(N2CCN(C(=O)[C@@H]3CCN(c4cc(F)c([C@H]5CCC(=O)NC5=O)c(F)c4)C3)CC2)CC1 [Example 656, (R)-3-(4-((R)-3-(4-(1-(4-((5-bromo-4-((8-(dimethylphosphoryl)cinnolin-7-yl)amino)pyrimidin-2-yl)amino)-2-ethyl-5-methoxyphenyl)piperidin-4-yl)piperazine-1-carbonyl)pyrrolidin-1-yl)-2,6-difluorophenyl)piperidine-2,6-dione]	1.66	83.91	5.22	83.6				
